Tests used:
[1] = system: EAAT2; assay: In vivo assay in wild-type mice, EAAT2 protein levels in forebrain gliosomes by Western blot; conditions: C57BL/6J mice, 40 mg/kg oral gavage, relative to vehicle controls
Protocol: In vivo assay in wild-type mice. Example compounds that were capable of increasing EAAT2 protein expression in cultured astrocytes were further evaluated in C57BL/6J mice. Mice were treated by oral gavage with the compound at 40 mg/kg. At 24 hr post-treatment, mice were euthanized and forebrains were harvested for the gliosome preparation (Dunkley et al., Nat Protoc 3, 1718-1728). Gliosomes are enriched with astrocytic processes, and majority of EAAT2 is localized in astrocytic processes (gliosomes). EAAT2 protein levels in gliosomes were determined by Western blot analysis.

[2] = system: human EAAT2; assay: In vitro assay in primary astrocyte cultures (PA-EAAT2 cells), EAAT2 protein levels by Western blot; format: cell-based; conditions: for In vitro - fold increase for EAAT2 in cultured astrocytes at indicated concentration (maximum activity): PA-EAAT2 cells treated 24 hr at 0.25-25 μM, relative to DMSO controls, value at the concentration that reaches maximum activity; for indicated concentration that reaches maximum activity (EAAT2 increase in cultured astrocytes): PA-EAAT2 cells, 24 hr, tested at 0.25, 0.5, 1, 2.5, 5, 10 and 25 μM
Protocol: In vitro assay in primary astrocyte cultures. Example compounds were initially evaluated in PA-EAAT2 cells, a primary astrocyte stably expressing human EAAT2 mRNAs (Kong et al., J Clin Invest. 124:1255-67). Cells were treated with the example compounds at 0.25 μM, 0.5 μM, 1 μM, 2.5 μM, 5 μM, 10 μM, and 25 μM for 24 hr and then harvested for measuring EAAT2 protein levels by Western blot analysis.

CN(C)CCOc1ncc(-c2ccccn2)cn1 [Example 157, N,N-dimethyl-2-((5-(pyridin-2-yl)pyrimidin-2-yl)oxy)ethan-1-amine]
In vivo - fold increase for EAAT2 in mouse forebrain at 24 hr post treatment (40 mg/kg by PO) [1]: 1.37 fold
In vitro - fold increase for EAAT2 in cultured astrocytes at indicated concentration (maximum activity) [2]: 1.54 fold
indicated concentration that reaches maximum activity (EAAT2 increase in cultured astrocytes) [2]: (1 μM)

O=C(Nc1ccc(-c2ccccn2)nc1)c1ccc(F)cc1 [Example 19, N-([2,2′-bipyridin]-5-yl)-4-fluorobenzamide]
In vivo - fold increase for EAAT2 in mouse forebrain at 24 hr post treatment (40 mg/kg by PO) [1]: 1.41 fold
In vitro - fold increase for EAAT2 in cultured astrocytes at indicated concentration (maximum activity) [2]: 1.97 fold
indicated concentration that reaches maximum activity (EAAT2 increase in cultured astrocytes) [2]: (1 μM)

O=C(Nc1cnc(-c2ccccn2)nc1)c1ccccc1 [Example 63, N-(2-(pyridin-2-yl)pyrimidin-5-yl)benzamide]
In vivo - fold increase for EAAT2 in mouse forebrain at 24 hr post treatment (40 mg/kg by PO) [1]: no increase
In vitro - fold increase for EAAT2 in cultured astrocytes at indicated concentration (maximum activity) [2]: 1.32 fold
indicated concentration that reaches maximum activity (EAAT2 increase in cultured astrocytes) [2]: (5 μM)

O=C(Nc1ccc(-c2ccccn2)cn1)c1ccccc1 [Example 3, N-([2,3′-bipyridin]-6′-yl)benzamide]
In vivo - fold increase for EAAT2 in mouse forebrain at 24 hr post treatment (40 mg/kg by PO) [1]: 1.42 fold
In vitro - fold increase for EAAT2 in cultured astrocytes at indicated concentration (maximum activity) [2]: 1.68 fold
indicated concentration that reaches maximum activity (EAAT2 increase in cultured astrocytes) [2]: (5 μM)

O=C(Nc1ncc(-c2ccccn2)cn1)c1ccccc1 [Example 48, N-(5-(pyridin-2-yl)pyrimidin-2-yl)benzamide]
In vivo - fold increase for EAAT2 in mouse forebrain at 24 hr post treatment (40 mg/kg by PO) [1]: 1.45 fold
In vitro - fold increase for EAAT2 in cultured astrocytes at indicated concentration (maximum activity) [2]: 1.58 fold
indicated concentration that reaches maximum activity (EAAT2 increase in cultured astrocytes) [2]: (2.5 μM)

O=C(Nc1ccc(-c2ccccn2)nc1)c1cccc(Cl)c1 [Example 23, N-([2,2′-bipyridin]-5-yl)-3-chlorobenzamide]
In vivo - fold increase for EAAT2 in mouse forebrain at 24 hr post treatment (40 mg/kg by PO) [1]: 1.45 fold
In vitro - fold increase for EAAT2 in cultured astrocytes at indicated concentration (maximum activity) [2]: 1.84 fold
indicated concentration that reaches maximum activity (EAAT2 increase in cultured astrocytes) [2]: (2.5 μM)

COc1ccc(C(=O)Nc2ccc(-c3ccccn3)nc2)cc1 [Example 21, N-([2,2′-bipyridin]-5-yl)-4-methoxybenzamide]
In vivo - fold increase for EAAT2 in mouse forebrain at 24 hr post treatment (40 mg/kg by PO) [1]: 1.34 fold
In vitro - fold increase for EAAT2 in cultured astrocytes at indicated concentration (maximum activity) [2]: 1.73 fold
indicated concentration that reaches maximum activity (EAAT2 increase in cultured astrocytes) [2]: (0.5 μM)

CN(C)CCOc1ccc(-c2ccccn2)cn1 [Example 94, 2-([2,3′-bipyridin]-6′-yloxy)-N,N-dimethylethan-1-amine]
In vivo - fold increase for EAAT2 in mouse forebrain at 24 hr post treatment (40 mg/kg by PO) [1]: 1.49 fold
In vitro - fold increase for EAAT2 in cultured astrocytes at indicated concentration (maximum activity) [2]: 1.51 fold
indicated concentration that reaches maximum activity (EAAT2 increase in cultured astrocytes) [2]: (5 μM)

O=C(Nc1ccc(-c2ccccn2)nc1)c1ccc(Cl)cc1 [Example 22, N-([2,2′-bipyridin]-5-yl)-4-chlorobenzamide]
In vivo - fold increase for EAAT2 in mouse forebrain at 24 hr post treatment (40 mg/kg by PO) [1]: 1.20 fold
In vitro - fold increase for EAAT2 in cultured astrocytes at indicated concentration (maximum activity) [2]: 1.64 fold
indicated concentration that reaches maximum activity (EAAT2 increase in cultured astrocytes) [2]: (0.5 μM)

CN(C)CCOc1cnc(-c2ccccn2)cn1 [Example 136, N,N-dimethyl-2-((5-(pyridin-2-yl)pyrazin-2-yl)oxy)ethan-1-amine]
In vivo - fold increase for EAAT2 in mouse forebrain at 24 hr post treatment (40 mg/kg by PO) [1]: no increase
In vitro - fold increase for EAAT2 in cultured astrocytes at indicated concentration (maximum activity) [2]: no increase

O=C(Nc1cnc(-c2ccccn2)cn1)c1ccccc1 [Example 33, N-(5-(pyridin-2-yl)pyrazin-2-yl)benzamide]
In vivo - fold increase for EAAT2 in mouse forebrain at 24 hr post treatment (40 mg/kg by PO) [1]: no increase
In vitro - fold increase for EAAT2 in cultured astrocytes at indicated concentration (maximum activity) [2]: no increase

O=C(Nc1ccc(-c2ccccn2)nc1)c1ccccc1 [Example 18, N-([2,2′-bipyridin]-5-yl)benzamide]
In vivo - fold increase for EAAT2 in mouse forebrain at 24 hr post treatment (40 mg/kg by PO) [1]: 1.56 fold
In vitro - fold increase for EAAT2 in cultured astrocytes at indicated concentration (maximum activity) [2]: 2.45 fold
indicated concentration that reaches maximum activity (EAAT2 increase in cultured astrocytes) [2]: (1 μM)
